The values below come from US9132108B2, “Pharmaceutical composition for ameliorating and/or preventing leptin resistance, and use thereof” (HIROSHIMA UNIVERSITY, priority 2009, dated 2015).

The subject of this experiment is blood glucose level. As to the kind of experiment: Glucose tolerance test in leptin-resistant mice (Example 11). Format: in vivo, mouse. The settings on record: 3 hours after glucose 2 g/kg i.p.; 3 mg/kg per day orally, 3 weeks; vs control group; P<0.07 in t-test. On the procedure:
Similarly with Example 8, 4 weeks-old male mice (C57BL/6 Cr Slc) had been given high-fat diet for 6 months so that leptin resistance would be induced in the mice. Thereafter, the mice were divided into two groups (each consisting of 8 mice), and the mice of individual groups were given the following diets for 3 weeks. • Control group: normal diet (10 kcal % fat) only • Flurbiprofen-administered group: normal diet+flurbiprofen Flurbiprofen (F8514, produced by SIGMA) was diluted with drinking water so that the administration amount of flurbiprofen would be 3 mg/kg per day, and was orally administered to the mice in the form of drinking water. The mice to which flurbiprofen had been administered for 3 weeks were subjected to a glucose tolerance test. In Example 11, mice were fasted overnight for 17 hours from between 17:00 and 18:00 of the previous day, and fasted blood glucose level (pre) was measured by Freestyle freedom (NIPRO CORPORATION, blood glucose self-monitoring system) at 10:00 to 11:00. Thereafter, glucose was intraperitoneally (i.p.) administered so that the administration amount of glucose would be 2 g/kg. Blood glucose level was measured using Freestyle freedom (NIPRO CORPORATION, blood glucose self-monitoring system) 30 minutes, 1 hour, 2 hours, 3 hours, and 4 hours after glucose administration. FIG. 17 is a graph showing the result of the glucose tolerance test. […]

Turning to `C[C@@H](C(=O)O)c1ccc(-c2ccccc2)c(F)c1` [flurbiprofen], the “blood glucose level in glucose tolerance test” value is listed as “reduced blood glucose level”.
